Measured values from patent US9895387B2, “Compositions for treating Helicobacter pylori infection” (OVER S.R.L., priority 2010, dated 2018).
≈ marks a conversion by molar mass, not a printed value. Like-named read-outs stand apart in the source and are kept apart here.

Tests used:
Type in all cases: cell-based, Helicobacter pylori
[1] = test system: H. pylori strain 10K (CagA+); assay: Minimal bactericidal concentration (MBC), broth dilution with subculture on agar; details: substance alone
[2] = test system: H. pylori strain G50 (CagA−); assay: as above; details: substance alone
[3] = test system: H. pylori strain CCUG 17874 (CagA+); assay: as above
[4] = test system: H. pylori strain 328 (CagA+); assay: as above; details: substance alone
[5] = test system: H. pylori strain 328 Km (isogenic mutant CagA−); details: substance alone
[6] = test system: H. pylori strain Di Simpli (CagA+); assay: Minimal bactericidal concentration (MBC), broth dilution with subculture on agar; details: substance alone
[7] = test system: H. pylori strain M/C-R2 (CagA+, resistant to met and clar); assay: as above; details: substance alone
[8] = test system: H. pylori strain 4 Kb (CagA+); assay: as above; details: substance alone
[9] = test system: H. pylori strain G21 (CagA−); assay: as above; details: substance alone
[10] = test system: H. pylori strain M/C-R1 (CagA+, resistant to met and clar); assay: as above; details: substance alone
[11] = Helicobacter pylori, read-out: MBC
[12] = Helicobacter pylori, CCUG17874, substance alone, read-out: MBC

Row | Compound | MBC [1, 11] [µg/mL] | MBC [2, 11] [µg/mL] | MBC [3, 12] [µg/mL] | MBC [4, 11] [µg/mL] | MBC [6, 11] [µg/mL] | MBC [7, 11] [µg/mL] | MBC [10, 11] [µg/mL] | also measured
1 | C[C@H]1COc2c(N3CCN(C)CC3)c(F)cc3c(=O)c(C(=O)O)cn1c23 [levofloxacin] | 0.31 (≈ 0.858 µM) | 0.16 (≈ 0.443 µM) | – | – | – | – | – | –
2 | polyoxyethylene (20) sorbitan monooleate [polysorbate 80] | – | – | – | – | – | – | – | MBC [1]: 6.2 µg/mL; MBC ([3]; substance alone): 5.0 µg/mL; MBC [4]: 31 to 62 µg/mL; MBC ([4]; listed as polysorbate): 62 µg/mL; MBC [5]: 62 µg/mL; MBC [6]: 25 µg/mL; MBC [7]: 62 µg/mL; MBC [8]: 31 µg/mL; MBC [9]: 1.6 µg/mL; MBC [2]: 4.0 µg/mL; MBC ([2]; listed as polysorbate): 4 µg/mL; MBC [10]: 160 µg/mL
3 | CC1(C)S[C@@H]2[C@H](NC(=O)[C@H](N)c3ccc(O)cc3)C(=O)N2[C@H]1C(=O)O [amoxicillin] | 0.08 (≈ 0.219 µM) | 0.04 (≈ 0.109 µM) | – | – | – | – | – | –
4 | Cc1ncc([N+](=O)[O-])n1CCO [metronidazole] | – | – | 3.1 (≈ 18.1 µM) | 16 (≈ 93.5 µM) | 10 (≈ 58.4 µM) | 320 (≈ 1870 µM) | 40 (≈ 234 µM) | –
5 | CC[C@H]1OC(=O)[C@H](C)[C@@H](O[C@H]2C[C@@](C)(OC)[C@@H](O)[C@H](C)O2)[C@H](C)[C@@H](O[C@@H]2O[C@H](C)C[C@H](N(C)C)[C@H]2O)[C@](C)(OC)C[C@@H](C)C(=O)[C@H](C)[C@@H](O)[C@]1(C)O [clarithromycin] | – | 0.2 (≈ 0.267 µM) | 0.25 (≈ 0.334 µM) | 0.2 (≈ 0.267 µM) | 0.4 (≈ 0.535 µM) | 2500 (≈ 3340 µM) | 320 (≈ 428 µM) | MBC [8, 11]: 0.1 µg/mL (≈ 0.134 µM); MBC [9, 11]: 0.2 µg/mL (≈ 0.267 µM)
